Drawing on US12344610B2, “APOL1 inhibitors and methods of use” (Maze Therapeutics, Inc., priority 2022, dated 2025), this text covers EC50 for eight compounds.

Read-outs that look alike come from different tables or passages of the source.

Holding throughout (format): cell-based
Assay [1] relates to HEK293 cells overexpressing APOL1 G2. Description: APOL1 G2 HEK293 cell rescue assay (reversal of cell death caused by overexpression of APOL1). Conditions: geometric mean of at least 2 assay runs, † = single assay run. In short, it runs like this:
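EC50 is the half-maximal effective concentration for reversing cell death driven by APOL1 G2 overexpression in HEK293 cells. Reported as geometric mean of at least 2 runs on separate days, each run averaging duplicate wells per plate; some values from a single run.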

Assay [2] deals with human immortalized podocytes inducibly expressing APOL1 G2. Description: APOL1 G2 podocyte cell rescue assay (Example B4). Conditions: differentiated human podocytes, doxycycline-induced APOL1 G2, CellTiter-Glo, geometric mean of at least 2 runs, † = single run. As to the method:
APOL1 G2 human immortalized podocyte viability assay for measurement of cytotoxicity reversal by compound (APOL1 G2 podocyte cell rescue assay).
Cell Handling. The hTERT-immortalized kidney podocyte cell line was procured from the laboratory of Dr. Moin Saleem at the University of Bristol, UK (Nephrology 17 (2012) 525-531; doi:10.1111/j.1440-1797.2012.01619.x; herein incorporated by reference in its entirety). Parental and engineered cell lines were cultured in RPMI 1640 media (Gibco, 11875093) with 10% Tet System Approved FBS (Takara, 631101). The engineered cell line was maintained under selection (2.5 μg/mL puromycin). Cell lines were maintained and engineered at 33° C. Cell cultures were transferred to 37° C. for 10 to 14 days to initiate differentiation (Nephrology 17 (2012) 525-531; doi:10.1111/j.1440-1797.2012.01619.x; herein incorporated by reference in its entirety). During this time, media was refreshed every 3 days. After differentiation, cells engineered to inducibly express APOL1 G2 were used in the podocyte cell rescue assay.
Cell Line Engineering. The APOL1 G2 coding sequence was cloned into the pLVX-TetOne-Puro vector and verified by sequencing (Genscript Biotech). This construct was designed to have a C-terminal HiBiT tag. Lentiviral packaging of the vector was conducted using the Lenti-X Packaging Single Shots (VSVG) system according to manufacturer instructions (Takara Bio, 631275). A stable cell line was generated by transfecting the parental podocyte cell line with the concentrated virus in media with 5 μg/mL polybrene (Sigma, TR-1003-G). Media was changed the following day. 72 hours post transfection, 2.5 μg/mL puromycin (Gibco, A1113803) was added to the cells and cells were maintained in selection media thereafter. This APOL1 G2 stable cellular pool was subjected to a stringent limiting dilution to generate a pure stable clone (Podocyte/pLVX-TetOne APOL1 G2/clone D10) capable of inducible expression of APOL1 G2.
Assay Setup. T175 flasks containing differentiated podocytes engineered to inducibly express APOL1 G2 (Podocyte/pLVX-TetOne APOL1 G2/clone D10) were washed once with 15 mL of DPBS (Thermo Fisher, 14190-144). These flasks were each trypsinized with 3 mL of prewarmed TrypLE Express (Gibco, 12605-010) and incubated at 37° C. with 5% CO2 until cells detached and neutralized with 7 mL of prewarmed assay media (RPMI 1640 media with 10% Tet System Approved FBS, no selection agent). Cells were pooled and the resulting suspension was gently mixed. The cell suspension was counted using a Countess Cell Counting Chamber (Invitrogen) and the cell concentration was adjusted to 240,000 cells/mL using assay media. Next, 25 μL of a 480 ng/mL working stock of doxycycline diluted in assay media was added to an assay ready plate. All experiments were performed in 384-well, white, solid bottom, tissue culture treated plates (Greiner, 781080). The assay ready compound plates were generated with duplicate 8-point compound dilution series that consisted of 3-fold stepwise dilutions (0.4% DMSO final). The plates were centrifuged at 1000 rpm for 1 minute. 25 μL of diluted cell suspension (final cell density=6,000 cells/well) was added to each well. The plates were centrifuged again at 1000 rpm for 1 minute and then incubated in a humidified incubator (37° C. with 5% CO2). After 95 hours, the assay plates were removed from the incubator and allowed to equilibrate to room temperature for 1 hour. CellTiter-Glo® reagent (Promega, G7570) was prepared according to the manufacturer's instructions. 25 μL of CellTiter-Glo® reagent was added to each well. Assay plates were sealed with foil and mixed for 5 minutes on an orbital shaker (500 rpm) to induce cell lysis. Plates were centrifuged at 1000 rpm for 1 minute. 10 minutes after CellTiter-Glo® reagent addition, an Envision plate reader (Perkin Elmer) was used to measure the luminescent signal of each assay plate. Collaborative Drug Discovery software was utilized for graphing data. […]

For assay [3], the system named is HEK293 clonal cell line overexpressing APOL1 G1. Description: APOL1 G1 HEK293 cell rescue assay (Example B3). Particulars: geometric mean of at least 2 runs, † = single run, ¥ = concentration at 50% rescue estimated (no sigmoidal curve). In short, it runs like this: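 HEK293 clonal line overexpressing APOL1 G1; EC50 is half-maximal reversal of APOL1-induced cell death. Values are the geometric mean of ≥2 runs on separate days, each run the average of duplicate wells. Where no sigmoidal curve could be fitted, the concentration giving 50% rescue was estimated.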

For assay [4], the system named is Trypanosoma brucei Lister 427 VSG221 with APOL1 G2 recombinant protein. In words: APOL1 G2 trypanosome cell rescue assay (Example B5). Conditions: geometric mean of at least 2 assay runs, † = single assay run. In short, it runs like this:
(§1)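 Recombinant mature APOL1 (residues 28-398, His-tag removed, E. coli-expressed, refolded from inclusion bodies, DDM buffer) at […] added with 250 trypanosomes/well in modified HMI-9 media. Duplicate 11-point 2-fold compound series, 0.4% DMSO; 20 h at 37° C, 5% CO2, then CellTiter-Glo luminescence for viability.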

The subject of assay [5] is Trypanosoma brucei Lister 427 VSG221 with APOL1 G0 recombinant protein. In words: APOL1 G0 trypanosome cell rescue assay (Example B5). Particulars: geometric mean of at least 2 assay runs, † = single assay run. In short, it runs like this:
as §1

Assay [6] deals with Trypanosoma brucei Lister 427 VSG221 with APOL1 G1 recombinant protein. Description: APOL1 G1 trypanosome cell rescue assay (Example B5). Particulars: geometric mean of at least 2 assay runs, † = single assay run. In a few lines: as §1
[7] abbreviates: Homo sapiens, HEK293, HEK293 overexpressing APOL1 G2.
The mark [8] stands for this setting: Homo sapiens, HEK293, HEK293 clonal line overexpressing APOL1 G1.
Where [9] appears, read: Trypanosoma brucei, 20 h, read-out: APOL1 G2 Trypanosome Rescue EC50, Trypanosoma brucei Lister 427 VSG221 with APOL1 G2 recombinant protein, 20 hours, CellTiter-Glo.
The mark [10] stands for this setting: Trypanosoma brucei, 20 h, read-out: APOL1 G0 Trypanosome Rescue EC50, Trypanosoma brucei Lister 427 VSG221 with APOL1 G0 recombinant protein, 20 hours, CellTiter-Glo.
Where [11] appears, read: Trypanosoma brucei, 20 h, read-out: APOL1 G1 Trypanosome Rescue EC50, Trypanosoma brucei Lister 427 VSG221 with APOL1 G1 recombinant protein, 20 hours, CellTiter-Glo.
[12] abbreviates: HEK293 clonal line overexpressing APOL1 G1.

As for `O=C(NC1CCS(=O)(=O)C1)c1ccc(OCCN2CCC3(CC2)C(=O)Nc2ccc(Cl)cc23)cc1F` (single isomer, unassigned) [Compound 242, 4-(2-{5-chloro-2-oxo-1,2-dihydrospiro[indole-3,4′-piperidin]-1′-yl}ethoxy)-N-[(3S) or (3R)-1,1-dioxo-1λ^6-thiolan-3-yl]-2-fluorobenzamide], the concentration for a half-maximal effect (EC50) is 74 nM in assay [1] (setting [7]), 19.7 nM in assay [2] and 316 nM in assay [3] (setting [8]).
`O=C(NC1CCS(=O)(=O)CC1)c1ccc(OCCN2CCC3(CC2)C(=O)Nc2ccc(Cl)cc23)cc1F` [Compound 240, 4-(2-{5-chloro-2-oxo-1,2-dihydrospiro[indole-3,4′-piperidin]-1′-yl}ethoxy)-N-(1,1-dioxo-1λ^6-thian-4-yl)-2-fluorobenzamide]: the EC50 in assay [1] (setting [7]) was 52.6 nM; in assay [2] (Homo sapiens) it was 13.9 nM; in assay [3] (setting [8]), 282 nM.
Consider `C[C@]1(O)C[C@@H](n2c(=O)ccc3cc(OCCN4CCC5(CC4)C(=O)Nc4ccc(C#N)cc45)cnc32)C1` [Compound 406, 2-oxo-1′-[2-({7-oxo-8-[(cis)-3-hydroxy-3-methylcyclobutyl]-7,8-dihydro-1,8-naphthyridin-3-yl}oxy)ethyl]-1,2-dihydrospiro[indole-3,4′-piperidine]-5-carbonitrile], for which the 50% effective concentration (EC50) in assay [1] (setting [7]) is 58.3 nM; in assay [4] (setting [9]), 51.1 nM; in assay [5] (setting [10]), 107 nM; in assay [6] (setting [11]) it was 128 nM; in assay [3] (setting [8]) it was 109 nM.
Turning to `O=C1Nc2ccc(Cl)cc2C12CCN(CCOc1cnc(CCO)nc1)CC2` [Compound 331, 5-chloro-1′-(2-{[2-(2-hydroxyethyl)pyrimidin-5-yl]oxy}ethyl)-1,2-dihydrospiro[indole-3,4′-piperidin]-2-one], the EC50 was 166 nM in assay [1] (setting [7]), 85.7 nM in assay [2] (Homo sapiens) and 440 nM in assay [3] (setting [8]).
With `CS(=O)(=O)C1(c2ccc(OCCN3CCC4(CC3)C(=O)Nc3ccc(Cl)cc34)cc2)CC(O)C1` (centres unmarked) [Compound 268, 5-chloro-1′-{2-[4-(3-hydroxy-1-methanesulfonylcyclobutyl)phenoxy]ethyl}-1,2-dihydrospiro[indole-3,4′-piperidin]-2-one], the 50% effective concentration (EC50) in assay [1] (HEK293 overexpressing APOL1 G2) is 53.4 nM; in assay [4] (read-out: APOL1 G2 Trypanosome Rescue EC50, Trypanosoma brucei Lister 427 VSG221 with APOL1 G2 recombinant protein, 20 hours, CellTiter-Glo), 32.7 nM; in assay [5] (read-out: APOL1 G0 Trypanosome Rescue EC50, Trypanosoma brucei Lister 427 VSG221 with APOL1 G0 recombinant protein, 20 hours, CellTiter-Glo), 108 nM; in assay [6] (read-out: APOL1 G1 Trypanosome Rescue EC50, Trypanosoma brucei Lister 427 VSG221 with APOL1 G1 recombinant protein, 20 hours, CellTiter-Glo) it was 121 nM; in assay [3] (setting [12]) it was 211 nM.
Take `O=C1CCc2cc(OCCN3CCC4(CC3)C(=O)Nc3ccc(C(F)F)cc34)cnc2N1C1CC(CO)C1` (single isomer, unassigned) [Compound 309, 5-(difluoromethyl)-1′-[2-({7-oxo-8-[(cis) or (trans)-3-(hydroxymethyl)cyclobutyl]-5,6,7,8-tetrahydro-1,8-naphthyridin-3-yl}oxy)ethyl]-1,2-dihydrospiro[indole-3,4′-piperidin]-2-one]: the half-maximal effective concentration (EC50) in assay [1] (setting [7]) was 55.9 nM; in assay [4] (setting [9]), 23.4 nM; in assay [5] (setting [10]) it was 58.2 nM; in assay [6] (setting [11]) it was 70.6 nM; in assay [3] (setting [8]), 134 nM.
Taken in the same sequence, the figures for `CC(=O)c1ncc(OCCN2CCC3(CC2)C(=O)Nc2ccc(Cl)cc23)cc1C(F)(F)F` [Compound 294, 1′-(2-{[6-acetyl-5-(trifluoromethyl)pyridin-3-yl]oxy}ethyl)-5-chloro-1,2-dihydrospiro[indole-3,4′-piperidin]-2-one] were 23.3 nM, 21.4 nM, 61.9 nM, 89 nM and 65.6 nM.
In the case of `O=C(NC1CCS(=O)(=O)C1)c1ccc(OCCN2CCC3(CC2)C(=O)Nc2ccc(Cl)cc23)cc1F` (single isomer, unassigned) [Compound 243, 4-(2-{5-chloro-2-oxo-1,2-dihydrospiro[indole-3,4′-piperidin]-1′-yl}ethoxy)-N-[(3R) or (3S)-1,1-dioxo-1λ^6-thiolan-3-yl]-2-fluorobenzamide], the results for the EC50 in assay [1] (HEK293 overexpressing APOL1 G2), in assay [2] and in assay [3] (setting [12]) were 46 nM, 4.11 nM and 208 nM, respectively.
